Measurements as given in ChEMBL document CHEMBL4507329, “Data for DCP probe BTZO-1” (2021).

Legend:
[1] = target: Activin receptor type-1B (Homo sapiens) (UniProt P36896); settings: Compound concentration 1000.0 nM
[2] = target: Activin receptor type-1-like (Homo sapiens) (UniProt P37023); settings: Compound concentration 1000.0 nM
[3] = target: 5'-AMP-activated protein kinase catalytic subunit alpha-2 (Homo sapiens) (UniProt P54646); settings: Compound concentration 1000.0 nM
[4] = target: NUAK family SNF1-like kinase 1 (Homo sapiens) (UniProt O60285); settings: Compound concentration 1000.0 nM
[5] = target: Tyrosine-protein kinase BTK (Homo sapiens) (UniProt Q06187); settings: Compound concentration 1000.0 nM
[6] = target: Cyclin-dependent kinase 13 (Homo sapiens) (UniProt Q14004); settings: Compound concentration 1000.0 nM
[7] = target: Cyclin-dependent kinase 8 (Homo sapiens, UniProt P49336); settings: Compound concentration 1000.0 nM
[8] = target: Serine/threonine-protein kinase DCLK3 (Homo sapiens) (UniProt Q9C098); settings: Compound concentration 1000.0 nM
[9] = target: Serine/threonine-protein kinase MRCK gamma (Homo sapiens) (UniProt Q6DT37); settings: Compound concentration 1000.0 nM
[10] = test system: Epidermal growth factor receptor (Homo sapiens), P00533 [L858R,T790M]; settings: Compound concentration 1000.0 nM
[11] = target: Eukaryotic translation initiation factor 2-alpha kinase 1 (Homo sapiens) (UniProt Q9BQI3); settings: Compound concentration 1000.0 nM
[12] = target: Ephrin type-A receptor 7 (Homo sapiens) (UniProt Q15375); settings: Compound concentration 1000.0 nM
[13] = target: Ephrin type-A receptor 8 (Homo sapiens) (UniProt P29322); settings: Compound concentration 1000.0 nM
[14] = target: Ephrin type-B receptor 2 (Homo sapiens) (UniProt P29323); settings: Compound concentration 1000.0 nM
[15] = target: Ephrin type-B receptor 3 (Homo sapiens) (UniProt P54753); settings: Compound concentration 1000.0 nM
[16] = target: Mitogen-activated protein kinase 1 (Homo sapiens) (UniProt P28482); settings: Compound concentration 1000.0 nM
[17] = target: Homeodomain-interacting protein kinase 2 (Homo sapiens) (UniProt Q9H2X6); settings: Compound concentration 1000.0 nM
[18] = target: Inhibitor of nuclear factor kappa-B kinase subunit beta (Homo sapiens) (UniProt O14920); settings: Compound concentration 1000.0 nM
Chain of Inhibitor of nuclear factor kappa-B kinase subunit beta (Homo sapiens) (O14920 whole entry): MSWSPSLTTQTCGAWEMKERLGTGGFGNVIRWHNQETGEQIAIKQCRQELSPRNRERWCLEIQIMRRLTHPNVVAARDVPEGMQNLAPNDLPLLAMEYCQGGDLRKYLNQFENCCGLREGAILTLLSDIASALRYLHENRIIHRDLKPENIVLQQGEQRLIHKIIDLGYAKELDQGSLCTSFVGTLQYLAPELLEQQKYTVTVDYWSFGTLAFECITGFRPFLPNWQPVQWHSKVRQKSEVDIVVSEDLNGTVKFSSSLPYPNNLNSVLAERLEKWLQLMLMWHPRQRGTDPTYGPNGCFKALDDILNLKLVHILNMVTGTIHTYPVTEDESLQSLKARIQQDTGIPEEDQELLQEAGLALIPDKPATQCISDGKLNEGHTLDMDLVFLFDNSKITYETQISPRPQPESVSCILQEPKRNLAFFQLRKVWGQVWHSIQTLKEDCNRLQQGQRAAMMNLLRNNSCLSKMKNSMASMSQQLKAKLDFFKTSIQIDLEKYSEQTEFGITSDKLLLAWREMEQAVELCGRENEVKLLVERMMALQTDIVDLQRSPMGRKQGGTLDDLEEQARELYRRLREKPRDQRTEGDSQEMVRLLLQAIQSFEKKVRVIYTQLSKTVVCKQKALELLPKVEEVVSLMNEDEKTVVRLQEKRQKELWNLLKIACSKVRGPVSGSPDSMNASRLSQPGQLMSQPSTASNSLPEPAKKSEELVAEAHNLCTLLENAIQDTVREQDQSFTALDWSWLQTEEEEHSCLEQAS

[19] = target: Insulin receptor-related protein (Homo sapiens) (UniProt P14616); settings: Compound concentration 1000.0 nM
[20] = target: Mitogen-activated protein kinase 8 (Homo sapiens) (UniProt P45983); settings: Compound concentration 1000.0 nM
[21] = target: Mitogen-activated protein kinase kinase kinase 13 (Homo sapiens) (UniProt O43283); settings: Compound concentration 1000.0 nM
[22] = target: Serine/threonine-protein kinase MAK (Homo sapiens) (UniProt P20794); settings: Compound concentration 1000.0 nM
[23] = target: Mitogen-activated protein kinase kinase kinase kinase 2 (Homo sapiens) (UniProt Q12851); settings: Compound concentration 1000.0 nM
[24] = target: Mitogen-activated protein kinase kinase kinase kinase 3 (Homo sapiens) (UniProt Q8IVH8); settings: Compound concentration 1000.0 nM
[25] = target: Mitogen-activated protein kinase kinase kinase kinase 5 (Homo sapiens) (UniProt Q9Y4K4); settings: Compound concentration 1000.0 nM
[26] = target: Serine/threonine-protein kinase MARK1 (Homo sapiens) (UniProt Q9P0L2); settings: Compound concentration 1000.0 nM
[27] = target: Serine/threonine-protein kinase 4 (Homo sapiens) (UniProt Q13043); settings: Compound concentration 1000.0 nM
[28] = target: Macrophage-stimulating protein receptor (Homo sapiens) (UniProt Q04912); settings: Compound concentration 1000.0 nM
[29] = target: Serine/threonine-protein kinase 24 (Homo sapiens) (UniProt Q9Y6E0); settings: Compound concentration 1000.0 nM
Chain of Serine/threonine-protein kinase 24 (Homo sapiens) (Q9Y6E0 whole entry, looked up): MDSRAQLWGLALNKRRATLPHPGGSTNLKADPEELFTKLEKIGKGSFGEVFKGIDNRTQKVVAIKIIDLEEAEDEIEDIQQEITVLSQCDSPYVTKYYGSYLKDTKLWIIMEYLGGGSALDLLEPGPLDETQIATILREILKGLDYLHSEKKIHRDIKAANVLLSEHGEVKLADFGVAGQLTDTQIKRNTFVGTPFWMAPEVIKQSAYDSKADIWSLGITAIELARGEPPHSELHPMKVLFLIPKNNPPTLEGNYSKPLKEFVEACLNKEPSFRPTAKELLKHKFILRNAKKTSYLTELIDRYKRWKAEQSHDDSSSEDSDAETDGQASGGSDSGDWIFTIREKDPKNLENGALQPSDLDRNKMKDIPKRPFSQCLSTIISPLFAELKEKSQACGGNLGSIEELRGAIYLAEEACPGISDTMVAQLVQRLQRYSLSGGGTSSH

[30] = target: Myosin-IIIa (Homo sapiens) (UniProt Q8NEV4); settings: Compound concentration 1000.0 nM
[31] = target: Serine/threonine-protein kinase Nek4 (Homo sapiens) (UniProt P51957); settings: Compound concentration 1000.0 nM
[32] = target: Serine/threonine-protein kinase PAK 6 (Homo sapiens) (UniProt Q9NQU5); settings: Compound concentration 1000.0 nM
[33] = target: Phosphatidylinositol 4-phosphate 3-kinase C2 domain-containing subunit beta (Homo sapiens) (UniProt O00750); settings: Compound concentration 1000.0 nM
[34] = target: Phosphatidylinositol 4,5-bisphosphate 3-kinase catalytic subunit alpha isoform (Homo sapiens) (UniProt P42336); settings: Compound concentration 1000.0 nM
Chain of Phosphatidylinositol 4,5-bisphosphate 3-kinase catalytic subunit alpha isoform (Homo sapiens) (P42336 whole entry, canonical isoform): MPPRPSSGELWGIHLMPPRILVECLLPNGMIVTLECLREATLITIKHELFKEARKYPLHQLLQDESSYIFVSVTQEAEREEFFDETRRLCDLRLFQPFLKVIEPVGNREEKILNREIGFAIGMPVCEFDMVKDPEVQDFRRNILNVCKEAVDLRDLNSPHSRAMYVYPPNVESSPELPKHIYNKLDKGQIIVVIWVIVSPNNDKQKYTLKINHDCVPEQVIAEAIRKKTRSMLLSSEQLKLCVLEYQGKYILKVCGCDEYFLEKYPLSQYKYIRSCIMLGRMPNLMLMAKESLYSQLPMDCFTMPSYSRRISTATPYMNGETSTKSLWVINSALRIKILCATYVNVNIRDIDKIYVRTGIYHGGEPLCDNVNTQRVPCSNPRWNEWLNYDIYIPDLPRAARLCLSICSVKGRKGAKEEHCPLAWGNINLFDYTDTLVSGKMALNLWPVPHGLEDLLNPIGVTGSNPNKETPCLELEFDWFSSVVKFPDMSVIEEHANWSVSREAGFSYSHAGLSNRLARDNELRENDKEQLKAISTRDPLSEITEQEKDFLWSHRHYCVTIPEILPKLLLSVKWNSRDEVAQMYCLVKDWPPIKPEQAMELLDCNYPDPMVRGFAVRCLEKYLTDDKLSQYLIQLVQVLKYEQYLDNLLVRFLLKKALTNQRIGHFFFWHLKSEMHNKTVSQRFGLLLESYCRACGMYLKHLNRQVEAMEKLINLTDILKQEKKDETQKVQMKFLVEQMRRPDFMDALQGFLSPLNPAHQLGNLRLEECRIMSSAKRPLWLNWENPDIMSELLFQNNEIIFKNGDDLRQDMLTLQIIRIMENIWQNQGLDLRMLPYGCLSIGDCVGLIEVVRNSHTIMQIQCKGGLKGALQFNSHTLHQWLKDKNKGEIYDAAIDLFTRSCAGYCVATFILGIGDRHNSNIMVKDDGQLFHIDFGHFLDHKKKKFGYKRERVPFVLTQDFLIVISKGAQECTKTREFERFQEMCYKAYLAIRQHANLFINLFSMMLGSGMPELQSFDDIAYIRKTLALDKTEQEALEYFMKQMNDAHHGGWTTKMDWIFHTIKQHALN

[35] = test system: Phosphatidylinositol 4,5-bisphosphate 3-kinase catalytic subunit alpha isoform (Homo sapiens), P42336 [E542K]; settings: Compound concentration 1000.0 nM
[36] = test system: Phosphatidylinositol 4,5-bisphosphate 3-kinase catalytic subunit alpha isoform (Homo sapiens), P42336 [E545K]; settings: Compound concentration 1000.0 nM
[37] = test system: Phosphatidylinositol 4,5-bisphosphate 3-kinase catalytic subunit alpha isoform (Homo sapiens), P42336 [H1047L]; settings: Compound concentration 1000.0 nM
[38] = target: Serine/threonine-protein kinase N2 (Homo sapiens) (UniProt Q16513); settings: Compound concentration 1000.0 nM
Chain of Serine/threonine-protein kinase N2 (Homo sapiens) (Q16513 whole entry, looked up): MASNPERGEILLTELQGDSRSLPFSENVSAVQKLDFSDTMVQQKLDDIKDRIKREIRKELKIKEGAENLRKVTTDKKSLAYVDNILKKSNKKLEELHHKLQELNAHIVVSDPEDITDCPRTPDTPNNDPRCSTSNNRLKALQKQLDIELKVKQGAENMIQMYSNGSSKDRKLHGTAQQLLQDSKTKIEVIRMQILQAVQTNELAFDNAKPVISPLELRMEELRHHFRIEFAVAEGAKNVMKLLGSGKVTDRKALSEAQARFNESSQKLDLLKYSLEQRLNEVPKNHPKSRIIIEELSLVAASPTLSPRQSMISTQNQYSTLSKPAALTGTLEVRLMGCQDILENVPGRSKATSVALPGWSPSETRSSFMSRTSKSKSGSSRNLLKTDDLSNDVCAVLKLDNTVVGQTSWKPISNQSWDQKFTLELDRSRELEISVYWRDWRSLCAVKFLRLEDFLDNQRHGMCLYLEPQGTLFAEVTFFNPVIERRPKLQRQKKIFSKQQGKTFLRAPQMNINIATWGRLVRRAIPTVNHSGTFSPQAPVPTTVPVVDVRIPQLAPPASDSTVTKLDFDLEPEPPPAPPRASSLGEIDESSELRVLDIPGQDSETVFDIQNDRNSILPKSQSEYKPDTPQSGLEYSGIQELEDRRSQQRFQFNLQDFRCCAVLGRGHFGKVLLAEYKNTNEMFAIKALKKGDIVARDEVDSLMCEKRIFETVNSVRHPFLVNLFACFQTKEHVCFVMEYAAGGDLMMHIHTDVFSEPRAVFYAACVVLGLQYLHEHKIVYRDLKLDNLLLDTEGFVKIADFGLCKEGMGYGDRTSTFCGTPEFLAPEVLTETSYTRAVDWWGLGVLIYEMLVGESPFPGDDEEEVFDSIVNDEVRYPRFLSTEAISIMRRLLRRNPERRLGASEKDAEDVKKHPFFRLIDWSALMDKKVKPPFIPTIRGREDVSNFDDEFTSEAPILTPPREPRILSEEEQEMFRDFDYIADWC

[39] = target: Serine/threonine-protein kinase PknB (Mycobacterium tuberculosis) (UniProt P9WI81); settings: Compound concentration 1000.0 nM
Chain of Serine/threonine-protein kinase PknB (Mycobacterium tuberculosis) (P9WI81 whole entry): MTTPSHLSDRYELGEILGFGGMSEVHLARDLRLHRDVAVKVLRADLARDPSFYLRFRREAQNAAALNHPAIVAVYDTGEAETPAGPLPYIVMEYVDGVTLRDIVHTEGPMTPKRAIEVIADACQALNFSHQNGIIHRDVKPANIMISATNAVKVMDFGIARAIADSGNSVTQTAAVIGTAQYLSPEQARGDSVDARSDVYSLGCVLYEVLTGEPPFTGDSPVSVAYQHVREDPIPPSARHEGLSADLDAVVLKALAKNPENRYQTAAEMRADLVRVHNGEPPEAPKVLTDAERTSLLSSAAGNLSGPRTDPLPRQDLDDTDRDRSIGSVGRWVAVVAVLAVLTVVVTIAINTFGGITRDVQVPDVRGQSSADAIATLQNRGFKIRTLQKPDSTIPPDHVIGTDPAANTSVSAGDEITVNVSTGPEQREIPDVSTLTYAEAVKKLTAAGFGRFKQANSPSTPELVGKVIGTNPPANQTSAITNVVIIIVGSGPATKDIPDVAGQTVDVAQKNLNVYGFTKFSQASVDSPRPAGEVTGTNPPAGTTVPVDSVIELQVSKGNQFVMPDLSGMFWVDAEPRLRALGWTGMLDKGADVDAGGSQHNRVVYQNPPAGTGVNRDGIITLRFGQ

[40] = target: Serine/threonine-protein kinase PLK2 (Homo sapiens) (UniProt Q9NYY3); settings: Compound concentration 1000.0 nM
[41] = target: Serine/threonine-protein kinase PRP4 homolog (Homo sapiens) (UniProt Q13523); settings: Compound concentration 1000.0 nM
[42] = target: Non-receptor tyrosine-protein kinase TNK1 (Homo sapiens) (UniProt Q13470); settings: Compound concentration 1000.0 nM
[43] = target: D(1B) dopamine receptor (Homo sapiens) (UniProt P21918); settings: Compound concentration 10.0 uM
[44] = target: Histamine H3 receptor (Homo sapiens) (UniProt Q9Y5N1); settings: Compound concentration 10.0 uM
[45] = target: Alpha-2B adrenergic receptor (Homo sapiens) (UniProt P18089); settings: Compound concentration 10.0 uM

Chain of Activin receptor type-1B (Homo sapiens) (P36896 whole entry): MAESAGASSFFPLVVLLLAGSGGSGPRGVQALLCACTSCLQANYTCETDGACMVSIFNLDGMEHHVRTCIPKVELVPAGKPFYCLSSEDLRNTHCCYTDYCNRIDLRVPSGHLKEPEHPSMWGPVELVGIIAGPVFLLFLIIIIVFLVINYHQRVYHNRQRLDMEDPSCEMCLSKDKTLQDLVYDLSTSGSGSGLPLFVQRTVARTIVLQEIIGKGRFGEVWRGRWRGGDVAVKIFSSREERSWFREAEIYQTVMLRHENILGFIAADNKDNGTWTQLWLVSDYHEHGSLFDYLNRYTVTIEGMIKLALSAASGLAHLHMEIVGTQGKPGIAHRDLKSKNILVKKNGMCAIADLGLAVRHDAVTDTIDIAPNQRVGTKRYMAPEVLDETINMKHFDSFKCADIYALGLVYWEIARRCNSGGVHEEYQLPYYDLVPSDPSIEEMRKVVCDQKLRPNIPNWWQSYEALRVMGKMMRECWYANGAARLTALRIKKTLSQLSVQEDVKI
Chain of 5'-AMP-activated protein kinase catalytic subunit alpha-2 (Homo sapiens) (P54646 whole entry, looked up): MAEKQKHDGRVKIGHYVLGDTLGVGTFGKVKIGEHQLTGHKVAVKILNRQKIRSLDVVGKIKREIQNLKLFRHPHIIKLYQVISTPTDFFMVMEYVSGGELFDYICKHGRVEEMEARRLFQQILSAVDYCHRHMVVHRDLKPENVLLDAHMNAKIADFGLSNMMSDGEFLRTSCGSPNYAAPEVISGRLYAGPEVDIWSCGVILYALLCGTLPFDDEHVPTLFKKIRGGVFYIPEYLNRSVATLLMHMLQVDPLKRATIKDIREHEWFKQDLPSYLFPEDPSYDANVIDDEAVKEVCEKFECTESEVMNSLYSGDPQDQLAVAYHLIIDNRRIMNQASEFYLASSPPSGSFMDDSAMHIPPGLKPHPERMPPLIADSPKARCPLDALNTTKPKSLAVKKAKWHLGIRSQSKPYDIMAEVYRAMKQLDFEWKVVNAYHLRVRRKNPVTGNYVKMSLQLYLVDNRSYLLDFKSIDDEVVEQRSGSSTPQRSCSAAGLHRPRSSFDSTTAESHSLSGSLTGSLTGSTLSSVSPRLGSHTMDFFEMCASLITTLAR

O=c1nc(-c2ccccn2)sc2ccccc12 [BTZO-1]
active: residual activity [7] 36%
inactive: residual activity [1] 100% | residual activity [2] 99% | residual activity [3] 100% | residual activity [4] 100% | residual activity [5] 96% | residual activity [6] 75% | residual activity [8] 97% | residual activity [9] 80% | residual activity [10] 100% | residual activity [11] 97% | residual activity [12] 80% | residual activity [13] 78% | residual activity [14] 100% | residual activity [15] 100% | residual activity [16] 91% | residual activity [17] 76% | residual activity [18] 100% | residual activity [19] 86% | residual activity [20] 100% | residual activity [21] 100% | residual activity [22] 89% | residual activity [23] 100% | residual activity [24] 90% | residual activity [25] 100% | residual activity [26] 100% | residual activity [27] 75% | residual activity [28] 100% | residual activity [29] 100% | residual activity [30] 92% | residual activity [31] 91% | residual activity [32] 100% | residual activity [33] 83% | residual activity [34] 100% | residual activity [35] 89% | residual activity [36] 65% | residual activity [37] 76% | residual activity [38] 100% | residual activity [39] 88% | residual activity [40] 95% | residual activity [41] 71% | residual activity [42] 59% | inhibition [43] 21.5% | inhibition [44] 2% | inhibition [45] 17%

O=C1NC(c2ccccn2)Sc2ccccc21 (stereo not given) [BTZO-4]
inactive: residual activity [1] 99% | residual activity [2] 70% | residual activity [3] 100% | residual activity [4] 95% | residual activity [5] 74% | residual activity [6] 90% | residual activity [7] 78% | residual activity [8] 69% | residual activity [9] 80% | residual activity [10] 100% | residual activity [11] 79% | residual activity [12] 72% | residual activity [13] 63% | residual activity [14] 71% | residual activity [15] 80% | residual activity [16] 89% | residual activity [17] 80% | residual activity [18] 100% | residual activity [19] 75% | residual activity [20] 100% | residual activity [21] 100% | residual activity [22] 92% | residual activity [23] 83% | residual activity [24] 100% | residual activity [25] 100% | residual activity [26] 99% | residual activity [27] 81% | residual activity [28] 100% | residual activity [29] 94% | residual activity [30] 85% | residual activity [31] 58% | residual activity [32] 100% | residual activity [33] 86% | residual activity [34] 91% | residual activity [35] 100% | residual activity [36] 73% | residual activity [37] 59% | residual activity [38] 100% | residual activity [39] 77% | residual activity [40] 97% | residual activity [41] 78% | residual activity [42] 55% | inhibition [43] 11.2% | inhibition [44] 8.1% | inhibition [45] -5.58%
